Measured values from patent US12264156B2, “Compounds and pharmaceutical compositions thereof for the treatment of diseases” (GALAPAGOS NV, priority 2018, dated 2025).
pIC50: −log10 of the molar value.

Key:
Assay type in all cases: biochemical
Conditions in all cases: ADP-Glo SIK kinase assay
SIK2 = biological target: T1, SIK2 (Homo sapiens, UniProt Q9H0K1); assay: ADP-Glo kinase assay, SIK2
T1 construct: purchased ThermoFisher Scientific PV4792
Method: (§1) The ADP-Glo™ kinase assay is a luminescent technology assay which measures the ADP formed from a kinase reaction. […] In a second step the kinase reactions are terminated and all the remaining ATP is depleted. In a final step the ADP is converted into ATP and this newly synthesized ATP is measured by using a luciferase/luciferin reaction. The generated light is measured using an Envision plate reader, wherein the luminescent signal obtained positively correlates with the kinase activity.
(§2) 1% DMSO and 10 μM staurosporine final concentrations are used as negative and positive controls.
(§3) 2 μL enzyme-substrate mixture is added to the assay plates.
(§4) The reaction is started by adding 2 μL diluted ATP on the assay plates. Plates are centrifuged for a few seconds at 1000 rpm and gently shaken for 2 min followed by an incubation at RT for 120 min.
(§5) The reactions are stopped and the unconsumed ATP is depleted by adding 5 μL ADP-Glo Reagent (Promega, Cat #V912B) to the reaction. The plates are centrifuged for a few seconds at 1000 rpm and incubated at RT for 40 min (ATP depletion).
(§6) The ADP is converted to ATP and luciferase and luciferin is introduced to detect ATP by adding 10 μL Kinase Detection Reagent (Promega, Cat #V913B+V914B) to the reaction. The plates are centrifuged for a few seconds at 1000 rpm and incubated at RT for 30 min (ADP detection).
(§7) Luminescence is measured on an Envision plate reader (PerkinElmer Inc.).

SIK1 = biological target: T2, SIK1 (Homo sapiens, UniProt P57059); assay: ADP-Glo kinase assay, SIK1
T2 construct: purchased Carna Biosciences 02-131
T2 sequence (P57059 whole entry): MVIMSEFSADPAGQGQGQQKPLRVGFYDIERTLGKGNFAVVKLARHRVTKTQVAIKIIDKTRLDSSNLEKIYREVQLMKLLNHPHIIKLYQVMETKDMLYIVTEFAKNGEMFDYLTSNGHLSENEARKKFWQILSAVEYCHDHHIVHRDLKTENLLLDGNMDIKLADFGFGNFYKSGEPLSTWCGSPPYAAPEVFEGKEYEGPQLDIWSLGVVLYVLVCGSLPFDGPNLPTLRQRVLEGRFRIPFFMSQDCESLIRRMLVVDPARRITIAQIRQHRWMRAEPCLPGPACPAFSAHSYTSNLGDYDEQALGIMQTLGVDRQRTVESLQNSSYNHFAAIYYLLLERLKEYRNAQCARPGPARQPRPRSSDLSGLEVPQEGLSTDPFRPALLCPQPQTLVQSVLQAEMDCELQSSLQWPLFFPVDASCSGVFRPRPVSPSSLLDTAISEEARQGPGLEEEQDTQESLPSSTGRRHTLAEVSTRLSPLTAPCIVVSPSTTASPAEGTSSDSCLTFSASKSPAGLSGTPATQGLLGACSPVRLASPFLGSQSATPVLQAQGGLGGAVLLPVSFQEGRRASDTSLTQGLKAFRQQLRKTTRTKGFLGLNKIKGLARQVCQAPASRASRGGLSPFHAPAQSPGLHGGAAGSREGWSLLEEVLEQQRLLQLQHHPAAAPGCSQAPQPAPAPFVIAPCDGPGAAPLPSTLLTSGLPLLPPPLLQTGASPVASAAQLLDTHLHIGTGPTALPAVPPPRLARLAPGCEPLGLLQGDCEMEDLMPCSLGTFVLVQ
Method: as §1, §2, §3, §4, §5, §6, §7

SIK3 = biological target: T3, SIK3 (Homo sapiens, UniProt Q9Y2K2); assay: ADP-Glo kinase assay, SIK3
T3 construct: purchased SignalChem S12-11G-100
T3 sequence (Q9Y2K2 whole entry): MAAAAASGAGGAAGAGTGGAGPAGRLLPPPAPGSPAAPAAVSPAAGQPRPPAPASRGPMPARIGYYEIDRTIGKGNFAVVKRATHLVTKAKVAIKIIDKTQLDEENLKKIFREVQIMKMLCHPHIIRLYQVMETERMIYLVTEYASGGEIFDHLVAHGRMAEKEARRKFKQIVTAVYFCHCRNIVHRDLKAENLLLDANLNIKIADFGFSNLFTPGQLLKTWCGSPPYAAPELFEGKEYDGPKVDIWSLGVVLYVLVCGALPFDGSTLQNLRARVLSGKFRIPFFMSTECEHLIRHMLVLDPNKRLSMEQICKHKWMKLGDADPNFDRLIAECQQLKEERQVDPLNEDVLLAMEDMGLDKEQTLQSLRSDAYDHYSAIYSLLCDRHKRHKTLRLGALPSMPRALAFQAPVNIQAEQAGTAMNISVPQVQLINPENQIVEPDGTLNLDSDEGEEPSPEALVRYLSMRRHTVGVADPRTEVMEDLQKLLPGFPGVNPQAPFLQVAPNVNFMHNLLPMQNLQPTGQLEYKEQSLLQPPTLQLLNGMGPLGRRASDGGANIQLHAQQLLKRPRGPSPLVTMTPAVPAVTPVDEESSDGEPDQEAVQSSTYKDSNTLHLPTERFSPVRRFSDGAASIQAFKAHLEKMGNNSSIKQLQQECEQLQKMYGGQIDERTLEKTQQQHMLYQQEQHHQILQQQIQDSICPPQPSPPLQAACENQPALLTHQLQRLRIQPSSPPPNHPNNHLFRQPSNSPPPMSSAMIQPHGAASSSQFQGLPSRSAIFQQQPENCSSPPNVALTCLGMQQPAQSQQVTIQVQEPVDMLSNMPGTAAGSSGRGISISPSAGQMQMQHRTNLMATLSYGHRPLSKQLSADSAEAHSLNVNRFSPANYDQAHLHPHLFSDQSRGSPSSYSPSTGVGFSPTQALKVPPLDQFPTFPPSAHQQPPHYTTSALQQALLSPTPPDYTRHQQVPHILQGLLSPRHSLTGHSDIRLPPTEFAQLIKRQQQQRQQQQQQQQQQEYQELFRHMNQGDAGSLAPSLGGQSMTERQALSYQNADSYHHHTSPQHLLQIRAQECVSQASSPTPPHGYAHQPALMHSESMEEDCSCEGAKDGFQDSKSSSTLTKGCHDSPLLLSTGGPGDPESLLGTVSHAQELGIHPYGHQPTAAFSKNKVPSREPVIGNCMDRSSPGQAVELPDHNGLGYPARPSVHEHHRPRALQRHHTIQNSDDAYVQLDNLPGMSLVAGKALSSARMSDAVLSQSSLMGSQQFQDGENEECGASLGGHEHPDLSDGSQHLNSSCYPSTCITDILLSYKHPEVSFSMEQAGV
Method: as §1, §2, §3, §4, §5, §6, §7

T1 sequence (Q9H0K1 whole entry): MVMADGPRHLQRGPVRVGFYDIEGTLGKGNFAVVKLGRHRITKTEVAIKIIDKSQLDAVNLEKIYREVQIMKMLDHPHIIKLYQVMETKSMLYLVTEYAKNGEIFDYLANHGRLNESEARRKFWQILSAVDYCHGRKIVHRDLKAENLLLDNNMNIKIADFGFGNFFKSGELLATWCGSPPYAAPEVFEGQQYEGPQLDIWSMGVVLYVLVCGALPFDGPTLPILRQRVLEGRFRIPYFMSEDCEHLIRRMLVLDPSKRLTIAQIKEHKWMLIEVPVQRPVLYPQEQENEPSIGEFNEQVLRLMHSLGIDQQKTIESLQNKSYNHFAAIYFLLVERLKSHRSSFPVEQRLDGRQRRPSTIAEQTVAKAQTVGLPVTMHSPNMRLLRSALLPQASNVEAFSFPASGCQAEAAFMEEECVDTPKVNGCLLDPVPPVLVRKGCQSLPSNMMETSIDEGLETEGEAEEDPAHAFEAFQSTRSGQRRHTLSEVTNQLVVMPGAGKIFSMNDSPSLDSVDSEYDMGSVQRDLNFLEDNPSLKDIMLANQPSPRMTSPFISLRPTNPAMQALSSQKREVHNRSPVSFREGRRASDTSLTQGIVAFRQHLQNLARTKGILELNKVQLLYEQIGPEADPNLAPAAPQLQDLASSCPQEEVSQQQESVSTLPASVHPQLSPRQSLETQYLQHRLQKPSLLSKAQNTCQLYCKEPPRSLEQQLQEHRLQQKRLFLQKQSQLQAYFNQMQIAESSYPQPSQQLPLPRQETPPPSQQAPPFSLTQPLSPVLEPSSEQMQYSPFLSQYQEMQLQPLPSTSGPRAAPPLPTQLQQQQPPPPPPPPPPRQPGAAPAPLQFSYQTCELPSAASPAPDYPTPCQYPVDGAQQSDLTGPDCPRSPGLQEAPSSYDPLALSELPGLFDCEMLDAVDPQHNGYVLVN

| SMILES | pIC50 (SIK2) | pIC50 (SIK1) | pIC50 (SIK3) |
| --- | --- | --- | --- |
| COc1cc(-c2cnc3cc(OCCN(C)CC(F)F)ccn23)cc(OC(F)F)c1C(=O)NC1CC1 [compound 236, N-cyclopropyl-4-[7-[2-[2,2-difluoroethyl(methyl)amino]ethoxy]imidazo[1,2-a]pyridin-3-yl]-2-(difluoromethoxy)-6-methoxy-benzamide] | 8.00 to 11.00 | 7.00 to 8.00 | 8.00 to 11.00 |
| COc1cc(-c2cnc3cc(OCc4nc(C)no4)ccn23)cc(OC(F)F)c1C(=O)NC1CC1 [compound 229, N-cyclopropyl-2-(difluoromethoxy)-6-methoxy-4-[7-[(3-methyl-1,2,4-oxadiazol-5-yl)methoxy]imidazo[1,2-a]pyridin-3-yl]benzamide] | 8.00 to 11.00 | 7.00 to 8.00 | 8.00 to 11.00 |
| COc1cc(-c2cnc3cc(OC4CCCN(C)C4)ccn23)cc(OC(F)F)c1C(=O)NC1CC1 (stereo not drawn) [compound 2, N-cyclopropyl-2-(difluoromethoxy)-6-methoxy-4-[7-[(1-methyl-3-piperidyl)oxy]imidazo [1,2-a]pyridin-3-yl]benzamide] | 7.00 to 8.00 | < 6.30 | 8.00 to 11.00 |
| COc1cc(-c2cnc3cc(OCC4CCCN4C4COC4)ccn23)cc(OC(F)F)c1C(=O)NC1CC1 (stereo not drawn) [compound 289, N-cyclopropyl-2-(difluoromethoxy)-6-methoxy-4-[7-[[1-(oxetan-3-yl)pyrrolidin-2-yl]methoxy]imidazo[1,2-a]pyridin-3-yl]benzamide] | 7.00 to 8.00 | 7.00 to 8.00 | 8.00 to 11.00 |
| COc1cc(-c2cnc3cc(OCc4nnc(C5CC5)o4)ccn23)cc(OC(F)F)c1C(=O)NC1CC1 [compound 205, N-cyclopropyl-4-[7-[(5-cyclopropyl-1,3,4-oxadiazol-2-yl)methoxy]imidazo[1,2-a]pyridin-3-yl]-2-(difluoromethoxy)-6-methoxy-benzamide] | 8.00 to 11.00 | 8.00 to 11.00 | 8.00 to 11.00 |
| COc1cc(-c2cnc3cc(OCCN4CCC4)ccn23)cc(OC(F)F)c1C(=O)NC1CC1 [compound 112, 4-[7-[2-(azetidin-1-yl)ethoxy]imidazo[1,2-a]pyridin-3-yl]-N-cyclopropyl-2-(difluoromethoxy)-6-methoxy-benzamide] | 8.00 to 11.00 | 7.00 to 8.00 | 8.00 to 11.00 |
| COc1cc(-c2cnc3cc(OCCN4CCCC(F)C4)ccn23)cc(OC(F)F)c1C(=O)NC1CC1 (stereo not drawn) [compound 212, N-cyclopropyl-2-(difluoromethoxy)-4-[7-[2-(3-fluoro-1-piperidyl)ethoxy]imidazo[1,2-a]pyridin-3-yl]-6-methoxy-benzamide] | 8.00 to 11.00 | 7.00 to 8.00 | 8.00 to 11.00 |
| COc1cc(-c2cnc3cc(OCCN4CCN(CCO)CC4)ccn23)cc(OC(F)F)c1C(=O)NC1CC1 [compound 308, N-cyclopropyl-2-(difluoromethoxy)-4-[7-[2-[4-(2-hydroxyethyl)piperazin-1-yl]ethoxy]imidazo[1,2-a]pyridin-3-yl]-6-methoxy-benzamide] | 8.00 to 11.00 | 7.00 to 8.00 | 8.00 to 11.00 |
| COc1cc(-c2cnc3cc(OCC4(F)CNC4)ccn23)cc2c1C(=O)N(CC(F)(F)F)CC2 [compound 250, 6-[7-[(3-fluoroazetidin-3-yl)methoxy]imidazo[1,2-a]pyridin-3-yl]-8-methoxy-2-(2,2,2-trifluoroethyl)-3,4-dihydro isoquinolin-1-one] | 8.00 to 11.00 | 6.30 to 7.00 | 8.00 to 11.00 |
| COc1cc(-c2cnc3cc(OC(C)(C)C#N)ccn23)cc(OC(F)F)c1C(=O)NC1CC1 [Cpd 263, 4-[7-(1-cyano-1-methyl-ethoxy)imidazo[1,2-a]pyridin-3-yl]-N-cyclopropyl-2-(difluoromethoxy)-6-methoxy-benzamide] | < 6.30 | < 6.30 | 7.00 to 8.00 |
| COc1cc(-c2cnc3cc(OCCN4CCOC(C)(C)C4)ccn23)cc(OC(F)F)c1C(=O)NC1CC1 [compound 194, N-cyclopropyl-2-(difluoromethoxy)-4-[7-[2-(2,2-dimethylmorpholin-4-yl)ethoxy]imidazo[1,2-a]pyridin-3-yl]-6-methoxy-benzamide] | 8.00 to 11.00 | 7.00 to 8.00 | 8.00 to 11.00 |
| COc1cc(-c2cnc3cc(OCC4(CN)CCC4)ccn23)cc(OC(F)F)c1C(=O)NC1CC1 [compound 116, 4-[7-[[1-(aminomethyl)cyclobutyl]methoxy]imidazo[1,2-a]pyridin-3-yl]-N-cyclopropyl-2-(difluoromethoxy)-6-methoxy-benzamide] | 8.00 to 11.00 | 7.00 to 8.00 | 8.00 to 11.00 |
| COc1cc(-c2cnc3cc(OCCCOC(C)=O)ccn23)cc(OC(F)F)c1C(=O)NC1CC1 [Cpd 282, 3-[3-[4-(cyclopropylcarbamoyl)-3-(difluoromethoxy)-5-methoxy-phenyl]imidazo[1,2-a]pyridin-7-yl]oxypropyl acetate] | 8.00 to 11.00 | 7.00 to 8.00 | 8.00 to 11.00 |
| COc1cc(-c2cnc3cc(OCCCN4CCCCC4)ccn23)cc(OC(F)F)c1C(=O)N[C@@H]1CC[C@H]1O (racemic) [compound 359, 2-(difluoromethoxy)-N-[(1R,2R)-2-hydroxycyclobutyl]-6-methoxy-4-[7-[3-(1-piperidyl)propoxy]imidazo[1,2-a]pyridin-3-yl]benzamide/2-(difluoromethoxy)-N-[(1S,2S)-2-hydroxycyclobutyl]-6-methoxy-4-[7-[3-(1-piperidyl)propoxy]imidazo[1,2-a]pyridin-3-yl]benzamide mixture] | 8.00 to 11.00 | 6.30 to 7.00 | 7.00 to 8.00 |

The next lines start with the values.

| pIC50 (SIK2) | pIC50 (SIK1) | pIC50 (SIK3) | SMILES |
| --- | --- | --- | --- |
| 8.00 to 11.00 | 7.00 to 8.00 | 8.00 to 11.00 | COc1cc(-c2cnc3cc(OCC(N)C4CCOC4)ccn23)cc(OC(F)F)c1C(=O)NC1CC1 (stereo not drawn) [compound 134, 4-[7-(2-amino-2-tetrahydrofuran-3-yl-ethoxy)imidazo[1,2-a]pyridin-3-yl]-N-cyclopropyl-2-(difluoromethoxy)-6-methoxy-benzamide] |
| 8.00 to 11.00 | 7.00 to 8.00 | 8.00 to 11.00 | COc1cc(-c2cnc3cc(OCC4(O)CCN(C(C)C)C4)ccn23)cc(OC(F)F)c1C(=O)NC1CC1 (stereo not drawn) [Cpd 372, N-cyclopropyl-2-(difluoromethoxy)-4-[7-[(3-hydroxy-1-isopropyl-pyrrolidin-3-yl)methoxy]imidazo[1,2-a]pyridin-3-yl]-6-methoxy-benzamide] |
| 8.00 to 11.00 | 7.00 to 8.00 | 8.00 to 11.00 | COc1cc(-c2cnc3cc(OCc4cccnn4)ccn23)cc(OC(F)F)c1C(=O)NC1CC1 [compound 226, N-cyclopropyl-2-(difluoromethoxy)-6-methoxy-4-[7-(pyridazin-3-ylmethoxy)imidazo[1,2-a]pyridin-3-yl]benzamide] |
| 7.00 to 8.00 | 7.00 to 8.00 | 8.00 to 11.00 | COc1cc(-c2cnc3cc(OC4CCOC4)ccn23)cc(OC(F)F)c1C(=O)NC1CC1 (stereo not drawn) [compound 163, N-cyclopropyl-2-(difluoromethoxy)-6-methoxy-4-(7-tetrahydrofuran-3-yloxyimidazo[1,2-a]pyridin-3-yl)benzamide] |
| 8.00 to 11.00 | 7.00 to 8.00 | 8.00 to 11.00 | COc1cc(-c2cnc3cc(OCC4CN(CC(C)(C)O)C4)ccn23)cc(OC(F)F)c1C(=O)NC1CC1 [Cpd 342, N-cyclopropyl-2-(difluoromethoxy)-4-[7-[[1-(2-hydroxy-2-methyl-propyl)azetidin-3-yl]methoxy]imidazo[1,2-a]pyridin-3-yl]-6-methoxy-benzamide] |
| 8.00 to 11.00 | 7.00 to 8.00 | 8.00 to 11.00 | COc1cc(-c2cnc3cc(OCc4cscn4)ccn23)cc(OC(F)F)c1C(=O)NC1CC1 [compound 46, N-cyclopropyl-2-(difluoromethoxy)-6-methoxy-4-[7-(thiazol-4-ylmethoxy)imidazo[1,2-a]pyridin-3-yl]benzamide] |
| 8.00 to 11.00 | 7.00 to 8.00 | 8.00 to 11.00 | COc1cc(-c2cnc3cc(OC[C@H]4CCNC4)ccn23)cc(OC(F)F)c1C(=O)NC1CC1 [Cpd 314, N-cyclopropyl-2-(difluoromethoxy)-6-methoxy-4-[7-[[(3S)-pyrrolidin-3-yl]methoxy]imidazo[1,2-a]pyridin-3-yl]benzamide] |
| 8.00 to 11.00 | 6.30 to 7.00 | 8.00 to 11.00 | O=C1c2c(cc(-c3cnc4cc(OCCN5CCOCC5)ccn34)cc2OC(F)F)CCN1CC(F)F [Cpd 247, 2-(2,2-difluoroethyl)-8-(difluoromethoxy)-6-[7-(2-morpholinoethoxy)imidazo[1,2-a]pyridin-3-yl]-3,4-dihydroisoquinolin-1-one] |
| 8.00 to 11.00 | 7.00 to 8.00 | 8.00 to 11.00 | COc1cc(-c2cnc3cc(OCC4(N)COC4)ccn23)cc(OC(F)F)c1C(=O)NC1CC1 [compound 170, 4-[7-[(3-aminooxetan-3-yl)methoxy]imidazo[1,2-a]pyridin-3-yl]-N-cyclopropyl-2-(difluoromethoxy)-6-methoxy-benzamide] |
| 8.00 to 11.00 | 7.00 to 8.00 | 8.00 to 11.00 | COc1cc(-c2cnc3cc(OCC(C)(C)OC)ccn23)cc(OC(F)F)c1C(=O)NC1CC1 [compound 3, N-cyclopropyl-2-(difluoromethoxy)-6-methoxy-4-[7-(2-methoxy-2-methyl-propoxy)imidazo[1,2-a]pyridin-3-yl]benzamide] |
